Test results published in patent US4839376A, “Pyrazoline derivatives for treating cerebrovascular diseases” (Mitsui Toatsu Chemicals, Inc., priority 1987, dated 1989).
Where two headings read alike, the source gives them in different places.

Legend:
[1] = Acute toxicity (LD50) by intraperitoneal injection to mice; conditions: mouse, in vivo, ip, mortality 48 hours after injection
Description: Acute toxicity (LD50) was determined by intraperitoneal injection of a compound being tested to mice and by calculation from the mortality 48 hours after injection by the usual method.

[2] = test system: ischemic cerebral edemas of rats caused by occlusion of the middle cerebral artery; assay: Action upon ischemic cerebral edemas of rats caused by occlusion of the middle cerebral artery; assay type: in vivo, Wistar rats; conditions: Rattus norvegicus, ip, 24 h, read-out: Cerebral Edema Inhibition Rate; for inhibition in vivo at 30 mg/kg: dose 30 mg/Kg i.p.; for inhibition in vivo at 25 mg/kg: dose 25 mg/Kg i.p.
Description: (Action upon ischemic cerebral edemas of rats caused by occlusion of the middle cerebral artery)
The compound being tested was suspended in 0.5% aqueous solution of CMC, and this suspension was intraperitoneally injected to each rat immediately after occlusion, and 8 hours and 16 hours later (a total of three times). Twenty-four hours after occlusion, each of the treated rats was sacrificed, the brain was excised, and the water content of hemispheres were determined by weighing the hemispheres before and after drying at 110° C. to the constant weight. On the other hand, the rats of the control group were subjected to arterial occlusion in the same way as above, followed by intraperitoneal injection of physiological saline three times a day. The cerebral edema inhibition rate of each compound was calculated from the following equation: [formula] where CL and CR represent the water contents of left and right hemispheres of the control group and SL and SR the water contents of left and right hemispheres of the treated group.

[3] = test system: cerebral infarction of rats caused by occlusion of the middle cerebral artery; assay: Action against cerebral infarction of rats caused by occlusion of the middle cerebral artery (TTC stain, planimeter); assay type: in vivo; conditions: i.p. three times, 24 h after occlusion
Description: (Action against cerebral infarction of rats caused by occlusion of the middle cerebral artery)
Cerebral infarction of rats caused by occlusion of the middle cerebral artery was measured by the method of Tamura et al. (Japan Clinics, 43, 185, 1985). The middle cerebral artery of rats was artificially occluded, the compound being tested was suspended in 0.5% aqueous solution of CMC, and this suspension was intraperitoneally injected to each rat immediately after occlusion, and 8 hours and 16 hours later (a total of three times). Twenty-four hours after occlusion, each of the treated rats was sacrificed, and the brain was excised, stained with TTC and cut into equal six parts from top to bottom. The cross-sections were photographed, and the ratio of infarcted areas to the whole brain was measured by means of a planimeter.

[4] = cited from earlier work; for protection of the brain from cerebral ischemia: literature
[5] = control group 11.58 ± 0.81, **1% significant difference
[6] = three times (immediately, 8 and 16 h after occlusion)
[7] = control group 11.58 ± 0.81, *5% significant difference
[8] = dose 50 mg/Kg i.p., three times (immediately, 8 and 16 h after occlusion)

| SMILES | LD50 at 48 h [1] [mg/kg] | inhibition in vivo at 30 mg/kg [2, 6] [%] | inhibition in vivo at 25 mg/kg [2, 6] [%] | further results |
| --- | --- | --- | --- | --- |
| O=C([O-])N1N=CCC1c1ccccc1.[Na+] (stereo not drawn) | 710 |  |  | inhibition in vivo at 50 mg/kg [2]: 18.6% |
| O=C(c1cccnc1)N1N=CCC1c1ccccc1 (stereo not drawn) [Compound 1, 1-(3-Pyridylcarbonyl)-5-phenyl-2-pyrazoline] | 600 | 36 |  | Rate of Infarcted Area [3, 5]: 5.03 ± 0.49% |
| O=C(c1ccncc1)N1N=CCC1c1ccccc1 (stereo not drawn) [Compound 2, 1-(4-Pyridylcarbonyl)-5-phenyl-2-pyrazoline] | 630 | 30.5 |  |  |
| O=C(c1ccccn1)N1N=CCC1c1ccccc1 (stereo not drawn) [Compound 3, 1-(2-Pyridylcarbonyl)-5-phenyl-2-pyrazoline] | 560 | 15.7 |  |  |
| COc1ccccc1C1CC=NN1C(=O)c1cccnc1 (stereo not drawn) [Compound 4, 1-(3-Pyridylcarbonyl)-5-(2-methoxyphenyl)-2-pyrazoline] | 610 | 28.3 |  |  |
| COc1cccc(C2CC=NN2C(=O)c2cccnc2)c1 (stereo not drawn) [Compound 5, 1-(3-Pyridylcarbonyl)-5-(3-methoxyphenyl)-2-pyrazoline] | 630 | 20.7 |  |  |
| COc1ccc(C2CC=NN2C(=O)c2cccnc2)cc1 (stereo not drawn) [Compound 6, 1-(3-Pyridylcarbonyl)-5-(4-methoxyphenyl)-2-pyrazoline] | 830 | 19.3 |  |  |
| O=C(c1cccnc1)N1N=CCC1c1ccco1 (stereo not drawn) [Compound 7, 1-(3-Pyridylcarbonyl)-5-(2-furyl)-2-pyrazoline] | 1100 | 31.2 |  | Rate of Infarcted Area [3, 7]: 6.96 ± 0.79% |
| O=C(c1cnccn1)N1N=CCC1c1ccccc1 (stereo not drawn) [Compound 8, 1-Pyrazylcarbonyl-5-phenyl-2-pyrazoline] | 710 |  | 33 |  |
| O=C(c1cccnc1)N1N=CCC1c1ccccc1F (stereo not drawn) [Compound 9, 1-(3-Pyridylcarbonyl)-5-(2-fluorophenyl)-2-pyrazoline] | 830 |  | 29.1 |  |
| Cc1ccccc1C1CC=NN1C(=O)c1cccnc1 (stereo not drawn) [Compound 10, 1-(3-Pyridylcarbonyl)-5-(2-methylphenyl)-2-pyrazoline] | 610 |  | 31.3 |  |
| O=C(c1cccnc1)N1N=CCC1c1ccc(Cl)cc1 (stereo not drawn) [Compound 11, 1-(3-Pyridylcarbonyl)-5-(4-chlorophenyl)-2-pyrazoline] | 710 |  | 29.3 |  |
| CC1CC=NN1C(=O)c1cccnc1 (stereo not drawn) [Compound 17, 1-(3-Pyridylcarbonyl)-5-methyl-2-pyrazoline] | 850 |  | 34 | Rate of Infarcted Area [3, 7]: 8.01 ± 0.54% |
| CC(C)C1CC=NN1C(=O)c1cccnc1 (stereo not drawn) [Compound 22, 1-(3-Pyridylcarbonyl)-5-isopropyl-2-pyrazoline] | 830 |  |  | inhibition in vivo at 50 mg/kg [2, 8]: 27.2% |
| CCOC(=O)N1N=CCC1c1ccccc1 (stereo not drawn) [Compound 25, 1-Ethoxycarbonyl-5-phenyl-2-pyrazoline] | 830 |  |  | inhibition in vivo at 50 mg/kg [2, 8]: 27.2% |
| CCOC(=O)N1N=CCC1C (stereo not drawn) [Compound 28, 1-Ethoxycarbonyl-5-methyl-2-pyrazoline] |  |  |  | Rate of Infarcted Area [3, 5]: 5.79 ± 0.43% |
| CCC1CC=NN1C(=O)OC (stereo not drawn) [Compound 30, 1-Methoxycarbonyl-5-ethyl-2-pyrazoline] | 740 |  | 29.1 |  |
| C1=NNC(c2ccccc2)C1 (stereo not drawn) [Compound 31, 5-Phenyl-2-pyrazoline] | 540 |  | 32 | Rate of Infarcted Area [3, 7]: 7.93 ± 0.56% |
| Clc1ccccc1C1CC=NN1 (stereo not drawn) [Compound 34, 5-(2-Chlorophenyl)-2-pyrazoline] | 600 |  | 29.1 | Rate of Infarcted Area [3, 7]: 8.56 ± 0.71% |

| SMILES | LD50 at 48 h [1] [mg/kg] | inhibition in vivo at 30 mg/kg [2, 6] [%] | inhibition in vivo at 25 mg/kg [2, 6] [%] | further results |
| --- | --- | --- | --- | --- |
| Cc1ccccc1C1CC=NN1 (stereo not drawn) [Compound 37, 5-(2-Methylphenyl)-2-pyrazoline] | 680 |  | 30.4 |  |
| COc1ccccc1C1CC=NN1 (stereo not drawn) [Compound 40, 5-(2-Methoxylphenyl)-2-pyrazoline] | 560 |  | 25.7 |  |
| Fc1cccc(C2CC=NN2)c1 (stereo not drawn) [Compound 42, 5-(3-Fluorophenyl)-2-pyrazoline] | 710 |  | 23.9 |  |
| FC(F)(F)c1cccc(C2CC=NN2)c1 (stereo not drawn) [Compound 45, 5-(3-Trifluoromethylphenyl)-2-pyrazoline] | 630 |  | 30.4 |  |
| C1=NNC(c2ccncc2)C1 (stereo not drawn) [Compound 52, 5-(4-Pyridyl)-2-pyrazoline] | 540 |  | 21.8 |  |
| C1=NNC(c2cccnc2)C1 (stereo not drawn) [Compound 53, 5-(3-Pyridyl)-2-pyrazoline] | 600 |  | 16.7 |  |
| CC(=O)N1N=CCC1c1ccccc1 (stereo not drawn) [Compound 56, -Acetyl-5-phenyl-2-pyrazoline] | 1100 |  | 15.9 |  |
| O=C(c1ccccc1)N1N=CCC1c1ccccc1 (stereo not drawn) [Compound 59, 1-Benzoyl-5-phenyl-2-pyrazoline] | 600 | 21.7 |  | Rate of Infarcted Area [3, 7]: 7.69 ± 0.67% |
| O=C(c1ccc(C(F)(F)F)cc1)N1N=CCC1c1ccccc1 (stereo not drawn) [Compound 60, 1-(4-Trifluoromethylbenzoyl)-5-phenyl-2-pyrazoline] | 810 | 20.9 |  |  |
| O=C(CN1N=CCC1c1ccccc1)c1ccccc1 (stereo not drawn) [Compound 61, 1-Benzoylmethyl-5-phenyl-2-pyrazoline] | 540 | 16.7 |  |  |
| O=C(C1CCCCC1)N1N=CCC1c1ccccc1 (stereo not drawn) [Compound 62, 1-Cyclohexylcarbonyl-5-phenyl-2-pyrazoline] | 630 | 15.3 |  |  |
| O=C(c1ccco1)N1N=CCC1c1ccccc1 (stereo not drawn) [Compound 63, 1-(2-Furylcarbonyl)-5-phenyl-2-pyrazoline] | 710 | 26.1 |  |  |
| O=C(c1cccs1)N1N=CCC1c1ccccc1 (stereo not drawn) [Compound 64, 1-(2-Thienylcarbonyl)-5-phenyl-2-pyrazoline] | 830 | 28.5 |  |  |
| O=C(Nc1cccnc1)N1N=CCC1c1ccccc1 (stereo not drawn) [Compound 65, 1-[N-(3-pyridyl)carbamoyl]-5-phenyl-2-pyrazoline] | 630 |  | 27.1 |  |
| S=C(Nc1cccnc1)N1N=CCC1c1ccccc1 (stereo not drawn) [Compound 66, 1-[N-(3-pyridyl)thiocarbamoyl]-5-phenyl-2-pyrazoline] | 560 |  | 18.9 |  |
| CCN(CC)Cc1nccn1-c1ccc([N+](=O)[O-])cc1C(=O)c1ccccc1Cl [Nizofenone] |  |  |  | action to inhibit cerebral edemas ([4]; Japan Clinics, 43, 185, 1985): no action to inhibit cerebral edemas; consciousness troubles ([4]; Japan Clinics, 43, 185, 1985): helps alleviate consciousness troubles; protection of the brain from cerebral ischemia [4]: useful to protect the brain from cerebral ischemia |
| CCC1(c2ccccc2)C(=O)NC(=O)N(C)C1=O (stereo not drawn) [mefobarbital] |  |  |  | protection of the brain from cerebral ischemia [4]: protect the brain from cerebral ischemia |
| CCCC(C)C1(CC)C(=O)NC(=O)NC1=O (stereo not drawn) [pentobarbital] |  |  |  | protection of the brain from cerebral ischemia [4]: protect the brain from cerebral ischemia |
